Tested on: HCV genotype 2 (GT2) and genotype 3 (GT3)
Assay: Phase II clinical study: proportion of patients HCV RNA negative by LOQ
Assay type: in vivo
Settings: monotherapy arm (600 mg BID 1 week, then 1000 mg QD), 25 IU/mL
Description: The efficacy of the therapy regimen may be monitored using standard protocols. Treatment may be followed by determinations of HCV in serum and measurement of serum ALT levels. For example, the patients may be assessed for the presence of HCV RNA in their plasma. HCV RNA (IU/mL) can be measured at regular intervals during the treatment, e.g., at Day 1 (pre-dose and 4, 8, and 12 hours post-dose) and pre-dose at Day 2, Day 3, Day 8, Day 15, Day 29, and at Week 12, Week 24, Week 36, Week 48, Week 72 (when applicable), and at follow up. In addition, the HCV strains in the patient can be sequenced and assessed for identification of mutations selecting for resistance.
As used herein, LOD means limit of detection (serum HCV RNA is less than 10 IU/mL) and LOQ means limit of quantification (serum HCV RNA is less than 25 IU/mL). HCV RNA levels can be measured using commercially available methods. […]

C/C=C/C[C@@H](C)[C@@H](O)[C@H]1C(=O)N[C@@H](CC)C(=O)N(C)[C@H](C)C(=O)N(CC)[C@@H](C(C)C)C(=O)N[C@@H](C(C)C)C(=O)N(C)[C@@H](CC(C)C)C(=O)N[C@@H](C)C(=O)N[C@H](C)C(=O)N(C)[C@@H](CC(C)C)C(=O)N(C)[C@@H](CC(C)C)C(=O)N(C)[C@@H](C(C)C)C(=O)N1C [alisporivir, Alisporivir]
patients achieved HCV RNA negative results (fraction in words): one third
